pEC50, pIC50: −log10 of the molar value. Like-named read-outs stand apart in the source and are kept apart here. Residues, ends and D or L forms follow the SMILES beside them. No end group written: not given here. *: point of attachment. OBn = c1ccc(CO*)cc1; X1 = CCCCCO*; OPr = CCCO*; X2 = CCCCO* A value given as a limit tells only on which side of the number the result lay.

One test has as its target T1, GRP receptor (Mus musculus, UniProt P21729).
T1 construct: Swiss 3T3 fibroblasts were used in these tests as the source of GRP receptor; endogenous in cells; host or cells: Swiss 3T3 fibroblasts (from Dr. K. Brown, Institute of Animal Physiology, Cambridge, U.K.)
Put plainly: Binding inhibition of radiolabelled GRP (Procedure A). The note with it: for pEC50: [Antagonist] reducing specific binding of 7 nM [3H-Phe15] GRP 15-27 to 50%, Swiss 3T3 cell monolayers. Here is the method:
Swiss 3T3 cells, obtained from Dr. K. Brown (Institute of Animal Physiology, Cambridge, U.K.). The cells were grown to confluency in Costar 12-well plates containing DMEM (Gibco) supplemented with 10% fetal bovine serum, 2 mM glutamine and 1% penicillin-streptomycin. The cells were washed twice with binding buffer [1:1 DMEM:Waymouths MB752/1 medium, plus 1 mg/ml BSA (Fraction V, Calbiochem)]. The antagonist was dissolved in 10 mM HCl, and diluted to the appropriate concentration in binding buffer. The antagonist was then added to the cells, followed by radiolabelled GRP at a final concentration of 7 nM. After 30 minutes incubation at 37° C., the supernatant liquid was removed and the cell monolayer rinsed four times with washing buffer (150 mM NaCl, 20 mM Na2 HPO4, 5 mM KCl, 1.8 mM KH2 PO4, 1 mg/ml BSA). The cells were then lysed with 1 ml/well of lysis buffer (1% Triton X-100, 0.1% BSA), and the solution was aspirated into scintillation vials for counting. Each data point was collected in triplicate.
Binding Inhibition: [Antagonist] which reduces the specific binding of 7 nM [^3 H-Phe^15 ] GRP 15-27 to 50% of the level observed in the absence of antagonist. Assay performed in Swiss 3T3 cell monolayers.

Test [1] deals with Swiss 3T3 cells. It counts as cell-based. The note with it: for pEC50: 3 h. Here is the method:
Swiss 3T3 cells were grown in monolayer culture in 24-well plates (Costar) in serum-free DMEM for 48 hours, at which time the GRP or a GRP homologue, the antagonist and 23 nM ^3 H-thymidine were added. […] The cells were harvested with a Skatron filter apparatus, and the filters counted in a scintillation counter.
Mitogenic Inhibition: [Antagonist] which reduces the uptake of ^3 H-thymidine caused by 7 nM [Nle^27 ] GRP 15-27 to 50% of the level observed in the absence of antagonist. […] GRP 1-27 as the mitogen. Assay performed on Swiss 3T3 monolayers.

Another test has as its system H345 SCLC cells. Put plainly: Stimulation of Ca2+ release in SCLC (Procedure D). The note with it: 100 nM GRP, read-out: [Ca2+]i in SCLC IC50. It counts as cell-based. Here is the method: Following the procedure of Heikkila et al., J. Biol. Chem. 262 16456 (1987), approximately 1×10^8 H345 SCLC cells, maintained in RPMI-1640 (Ro) medium supplemented with selenium, insulin, and transferrin, were harvested by settling and washing with Ro. They were then resuspended in 2 ml Ro, to which 1.2 nmol Fura-2/AM per 10^6 cells was added. After a 15 minute incubation at 37° C., the cells were diluted to 10 ml with Ro and incubated for 1 hour at 37° C. The cells were then centrifuged and resuspended in HEPES-saline (140 mM NaCl, 5 mM KCl, 5 mM glucose, 1 mM CaCl2, 1 mM MgCl2, 20 mM HEPES, pH 7.4) at a density of 2.5-5×10^6 cells/ml. The cells were kept on ice for up to 2 hours before being used. Ca^2+ measurements were performed at 37° C. in an Aminco SPF-500 fluorimeter. The excitation wavelength was 340 nm, the emission wavelength 510 nm. Two ml of cell suspension was periodically resuspended in a 3 ml plastic cuvette. They were equilibrated at 37° C. for at least 5 minutes before data was collected. After a stable baseline was established, a mixture of the compound of interest an 100 nM GRP was added, and data was collected for approximately 5 minutes. At that time, a challenge dose of GRP was added, and data was collected for an additional 5 minutes. […] Baseline fluorescence was measured after the subsequent addition of 40 μl 2M Tris (pH 9.5) and 64 μl 0.2M EGTA.

The subject of test [2] is Swiss 3T3 cells. It counts as cell-based. As to conditions: for pEC50: 3 h. Here is the method:
Swiss 3T3 cells were grown in monolayer culture in 24-well plates (Costar) in serum-free DMEM for 48 hours, at which time the peptide being tested and 23 nM ^3 H-thymidine were added. […] The cells were harvested with a Skatron filter apparatus, and the filters counted in a scintillation counter. Mitogenic Stimulation: [Agonist] which stimulates uptake of ^3 H-thymidine to 50% of the maximal level caused by [Nle^27 ] GRP 15-27. Assay performed on Swiss 3T3 monolayers.
The source holds these as a separate data set.

[3] abbreviates: assays of example 2 repeated, unit inferred.

T1 sequence (P21729 whole entry): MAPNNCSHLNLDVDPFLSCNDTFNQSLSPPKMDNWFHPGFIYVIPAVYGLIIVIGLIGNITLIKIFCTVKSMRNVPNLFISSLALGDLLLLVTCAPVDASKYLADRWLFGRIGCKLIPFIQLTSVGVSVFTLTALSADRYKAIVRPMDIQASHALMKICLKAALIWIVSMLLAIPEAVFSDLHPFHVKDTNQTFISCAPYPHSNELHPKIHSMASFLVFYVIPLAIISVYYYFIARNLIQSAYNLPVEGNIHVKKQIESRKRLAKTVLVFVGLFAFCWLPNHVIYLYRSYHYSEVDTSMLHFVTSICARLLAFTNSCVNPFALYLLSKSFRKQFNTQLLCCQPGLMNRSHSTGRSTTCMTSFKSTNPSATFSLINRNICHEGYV

In general, pIC50 refers to the negative decadic logarithm of the IC50, by convention in mol/L. Take `CCCCCOC(=O)[C@H](CC(C)C)NC(=O)[C@H](Cc1c[nH]cn1)NC(=O)CNC(=O)[C@@H](NC(=O)[C@H](C)NC(=O)[C@H](Cc1c[nH]c2ccccc12)NC(=O)[C@H](Cc1c[nH]cn1)NC(C)=O)C(C)C` [AcHisTrpAlaValGlyHisLeu--O(CH2)4 CH3] (Ac-HWAVGHL-X1): on GRP receptor (setting [3]), the pIC50 was 7.91.

For the compound `CCOC(=O)[C@H](CC(C)C)NC(=O)[C@H](Cc1c[nH]cn1)NC(=O)CNC(=O)[C@@H](NC(=O)[C@H](C)NC(=O)[C@H](Cc1c[nH]c2ccccc12)NC(=O)[C@H](Cc1c[nH]cn1)NC(C)=O)C(C)C` [N-acetyl His Trp Ala Val Gly His Leu-OCH2 CH3] (Ac-HWAVGHL-OEt), the pIC50 with Swiss 3T3 cells [1] (average of 2 experiments, read-out: Mitogenic Inhibition IC50) was 7.82; in the test with H345 SCLC cells, 6.40; at GRP receptor (average of 6 experiments), 8.41. For the same compound, the “Mitogenic Stimulation” value in the test on Swiss 3T3 cells [2] (at concentrations up to 30 μM) is reported as “none”.

As for `CCCOC(=O)[C@H](CC(C)C)NC(=O)[C@H](Cc1c[nH]cn1)NC(=O)CNC(=O)[C@@H](NC(=O)[C@H](C)NC(=O)[C@H](Cc1c[nH]c2ccccc12)NC(=O)[C@H](Cc1c[nH]cn1)NC(C)=O)C(C)C` [AcHisTrpAlaValGlyHisLeu--O(CH2)2 CH3] (Ac-HWAVGHL-OPr), at GRP receptor (setting [3]), the pIC50 was 8.46.

Turning to `CC(=O)N[C@@H](Cc1c[nH]cn1)C(=O)N[C@@H](Cc1c[nH]c2ccccc12)C(=O)N[C@@H](C)C(=O)N[C@H](C(=O)NCC(=O)N[C@@H](Cc1c[nH]cn1)C(=O)N[C@@H](CC(C)C)C(=O)OCc1ccccc1)C(C)C` [AcHisTrpAlaValGlyHisLeu--OCH2 C6 H5] (Ac-HWAVGHL-OBn), at GRP receptor (setting [3]), the pIC50 is 8.27.

In the case of `COC(=O)[C@H](CC(C)C)NC(=O)[C@H](Cc1c[nH]cn1)NC(=O)CNC(=O)[C@@H](NC(=O)[C@H](C)NC(=O)[C@H](Cc1c[nH]c2ccccc12)NC(=O)[C@H](Cc1c[nH]cn1)NC(C)=O)C(C)C` [AcHisTrpAlaValGlyHisLeu--OCH3] (Ac-HWAVGHL-OMe), at GRP receptor (setting [3]), the pIC50 was 8.11.

As for `CCCCOC(=O)[C@H](CC(C)C)NC(=O)[C@H](Cc1c[nH]cn1)NC(=O)CNC(=O)[C@@H](NC(=O)[C@H](C)NC(=O)[C@H](Cc1c[nH]c2ccccc12)NC(=O)[C@H](Cc1c[nH]cn1)NC(C)=O)C(C)C` [AcHisTrpAlaValGlyHisLeu--O(CH2)3 CH3] (Ac-HWAVGHL-X2), the pIC50 at GRP receptor (setting [3]) is 8.17.

For orientation: pEC50 means the negative decadic logarithm of the EC50, by convention in mol/L. A low value points to a large EC50. For “HWAVGHL-NH2 [His--Trp--Ala--Val--Gly--His--LeuNH2]”, the pEC50 was 4.30 in the test on Swiss 3T3 cells [1], 4.70 on GRP receptor and under 4.00 in the test with Swiss 3T3 cells [2].

On to “Ac-HWAVGHL-NH2 [Ac--His--Trp--Ala--Val--Gly--His--LeuNH2]”, for which the pEC50 in the test on Swiss 3T3 cells [1] was 5.52; on GRP receptor it was 5.70; in the test on Swiss 3T3 cells [2], under 4.00.
